In patent US20260285850A1, “SUBSTITUTED OXAZOLIDINONES AND IMIDAZOLINONES AS HERBICIDES” (FMC CORPORATION, priority 2023, published 2026):

Columns and labels:
Format in all cases: in vivo
[1] = system: galium (catchweed bedstraw, Galium aparine); assay: Test A postemergence application, visual injury rating 0-100
How it was run: (§1)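 Preemergence directed soil spray or postemergence spray (2-10 cm, 1-2 leaf); loam/sand mix; compound in non-phytotoxic solvent + surfactant. Greenhouse, 10 d. Visual injury vs untreated, 0 = none, 100 = complete control.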

[2] = system: horseweed (Erigeron canadensis); assay: as above
How it was run: as §1

kochia (Bassia scoparia) [3] = assay: as above
How it was run: as §1

[4] = system: blackgrass (Alopecurus myosuroides); assay: as above
How it was run: as §1

[5] = system: palmer (palmer amaranth, palmer pigweed, Amaranthus palmeri); assay: as above
How it was run: as §1

soybean (Glycine max) [6] = assay: as above
How it was run: as §1

[7] = system: wheat (Triticum aestivum); assay: as above
How it was run: as §1

[8] = system: green foxtail (Setaria viridis); assay: as above
How it was run: as §1

[9] = system: ryegrass, Italian (italian ryegrass, Lolium multiflorum); assay: as above
How it was run: as §1

corn (Zea mays) [10] = assay: as above
How it was run: as §1

[11] = system: oat, wild (wild oat, Avena fatua); assay: as above
How it was run: as §1

[12] = system: ragweed (common ragweed, Ambrosia artemisiifolia); assay: as above
How it was run: as §1

[13] = system: barnyardgrass (Echinochloa crus-galli); assay: as above
How it was run: as §1

[14] = system: barnyardgrass (Echinochloa crusgalli); assay: Test B flooded paddy test, visual plant response rating 0-100; details: 250 g ai/ha, Flood, applied to paddy water, evaluated after 13 days
How it was run: (§2)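 Plants were grown to the 2-leaf stage, then pots were flooded to 3 cm above the soil and compound was applied directly to the paddy water, with that depth kept throughout.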

[15] = system: ducksalad (Heteranthera limosa); assay: as above; details: 250 g ai/ha, Flood, applied to paddy water, evaluated after 13 days
How it was run: as §2

rice (Oryza sativa) = assay: as above; details: 250 g ai/ha, Flood, applied to paddy water, evaluated after 13 days
How it was run: as §2

[16] = system: sedge, umbrella (small-flower umbrella sedge, Cyperus difformis); assay: as above; details: 250 g ai/ha, Flood, applied to paddy water, evaluated after 13 days
How it was run: as §2

kochia (Bassia scoparia) [17] = assay: Test A preemergence soil spray, visual injury rating 0-100; details: 10 days
How it was run: as §1

[18] = system: blackgrass (Alopecurus myosuroides); assay: as above; details: 10 days
How it was run: as §1

[19] = system: palmer (palmer amaranth, palmer pigweed, Amaranthus palmeri); assay: as above; details: 10 days
How it was run: as §1

soybean (Glycine max) [20] = assay: as above; details: 10 days
How it was run: as §1

[21] = system: wheat (Triticum aestivum); assay: as above; details: 10 days
How it was run: as §1

[22] = system: green foxtail (Setaria viridis); assay: as above; details: 10 days
How it was run: as §1

[23] = system: ryegrass, Italian (italian ryegrass, Lolium multiflorum); assay: as above; details: 10 days
How it was run: as §1

corn (Zea mays) [24] = assay: as above; details: 10 days
How it was run: as §1

[25] = system: oat, wild (wild oat, Avena fatua); assay: as above; details: 10 days
How it was run: as §1

[26] = system: ragweed (common ragweed, Ambrosia artemisiifolia); assay: as above; details: 10 days
How it was run: as §1

[27] = system: barnyardgrass (Echinochloa crus-galli); assay: as above; details: 10 days
How it was run: as §1

[28] = 62 g ai/ha, postemergence, 10 days, 0 = no effect, 100 = complete control
[29] = Postemergence, 16 g ai/ha, greenhouse 10 days, 0 no effect, 100 complete control
[30] = 62 g ai/ha, 0 = no effect, 100 = complete control

SMILES: CC(C)COC(=O)C1=CCC(NC(=O)C2(C)CN(c3cc(F)cc(F)c3)C(=O)O2)C1 (stereo not shown) [Compound 97]
- Galium plant response rating (0-100) [1, 28]: 60
- Galium plant response rating (0 to 100 scale) [1, 29]: 20
- Horseweed plant response rating (0-100) [2, 28]: 0
- Horseweed plant response rating (0 to 100 scale) [2, 29]: 0
- Kochia plant response rating (0-100) (kochia (Bassia scoparia) [3]; [28]): 70
- Kochia plant response rating (0 to 100 scale) (kochia (Bassia scoparia) [3]; [29]): 30
- Blackgrass plant response rating (0-100) [4, 28]: 0
- Blackgrass plant response rating (0 to 100 scale) [4, 29]: 0
- Pigweed, Palmer plant response rating (0-100) [5, 28]: 10
- Pigweed, Palmer plant response rating (0 to 100 scale) [5, 29]: 0
- Soybean plant response rating (0-100) (soybean (Glycine max) [6]; [28]): 40
- Soybean plant response rating (0 to 100 scale) (soybean (Glycine max) [6]; [29]): 0
- Wheat plant response rating (0-100) [7, 28]: 10
- Wheat plant response rating (0 to 100 scale) [7, 29]: 0
- Foxtail, Green plant response rating (0-100) [8, 28]: 0
- Foxtail, Green plant response rating (0 to 100 scale) [8, 29]: 0
- Ryegrass, Italian plant response rating (0-100) [9, 28]: 0
- Ryegrass, Italian plant response rating (0 to 100 scale) [9, 29]: 0
- Corn plant response rating (0-100) (corn (Zea mays) [10]; [28]): 0
- Corn plant response rating (0 to 100 scale) (corn (Zea mays) [10]; [29]): 0
- Oat, Wild plant response rating (0-100) [11, 28]: 0
- Oat, Wild plant response rating (0 to 100 scale) [11, 29]: 0
- Ragweed plant response rating (0-100) [12, 28]: 20
- Ragweed plant response rating (0 to 100 scale) [12, 29]: 0
- Barnyardgrass plant response rating (0-100) [13, 28]: 20
- Barnyardgrass plant response rating (0 to 100 scale) [13, 29]: 0
- Plant response rating, Barnyardgrass (0 to 100 scale, 0 is no effect and 100 is complete control) [14]: 0
- Plant response rating, Ducksalad (0 to 100 scale, 0 is no effect and 100 is complete control) [15]: 0
- Plant response rating, Rice (0 to 100 scale, 0 is no effect and 100 is complete control) (rice (Oryza sativa)): 0
- Plant response rating, Sedge, Umbrella (0 to 100 scale, 0 is no effect and 100 is complete control) [16]: 0
- Kochia plant response rating (kochia (Bassia scoparia) [17]; 16 g ai/ha, 0 to 100 scale): 0
- Kochia plant response rating (0-100) (kochia (Bassia scoparia) [17]; [30]): 0
- Blackgrass plant response rating ([18]; 16 g ai/ha, 0 to 100 scale): 0
- Blackgrass plant response rating (0-100) [18, 30]: 0
- Pigweed, Palmer plant response rating ([19]; 16 g ai/ha, 0 to 100 scale): 0
- Pigweed, Palmer plant response rating (0-100) [19, 30]: 0
- Soybean plant response rating (soybean (Glycine max) [20]; 16 g ai/ha, 0 to 100 scale): 0
- Soybean plant response rating (0-100) (soybean (Glycine max) [20]; [30]): 0
- Wheat plant response rating ([21]; 16 g ai/ha, 0 to 100 scale): 0
- Wheat plant response rating (0-100) [21, 30]: 10
- Foxtail, Green plant response rating ([22]; 16 g ai/ha, 0 to 100 scale): 20
- Foxtail, Green plant response rating (0-100) [22, 30]: 60
- Ryegrass, Italian plant response rating ([23]; 16 g ai/ha, 0 to 100 scale): 0
- Ryegrass, Italian plant response rating (0-100) [23, 30]: 0
- Corn plant response rating (corn (Zea mays) [24]; 16 g ai/ha, 0 to 100 scale): 0
- Corn plant response rating (0-100) (corn (Zea mays) [24]; [30]): 0
- Oat, Wild plant response rating ([25]; 16 g ai/ha, 0 to 100 scale): 0
- Oat, Wild plant response rating (0-100) [25, 30]: 0
- Ragweed plant response rating ([26]; 16 g ai/ha, 0 to 100 scale): 0
- Ragweed plant response rating (0-100) [26, 30]: 0
- Barnyardgrass plant response rating ([27]; 16 g ai/ha, 0 to 100 scale): 0
- Barnyardgrass plant response rating (0-100) [27, 30]: 0
